In patent US20250145715A1, “B7-H3 TARGETING FUSION PROTEINS AND METHODS OF USE THEREOF” (GT Biopharma, Inc., priority 2021, published 2025):

Legend:
A549 lung cancer cells = experiment: NK cell CD107a / IFNγ flow cytometry against A549; assay type: cell-based, human; conditions: normal donor PBMCs, vs controls
Description: FIGS. 24A-24F illustrate that B7-H3 TriKE enhances NK cell function against lung tumor targets. FIG. 24A is a graph showing pooled analysis of proportion of NK cells from healthy donors expressing CD107a+ against A549(N=6) tumor targets. FIG. 24B is a graph showing pooled analysis of proportion of NK cells from healthy donors expressing IFNγ against A549(N=6) tumor targets. FIG. 24C is a graph showing pooled analysis of proportion of NK cells from healthy donors expressing CD107a+ against NCI-H322 (N=5) tumor targets. FIG. 24D is a graph showing pooled analysis of proportion of NK cells from healthy donors expressing IFNγ against NCI-H322 (N=5) tumor targets. FIG. 24E is a graph showing pooled proportion of NK cells from healthy donors (black bars) or lung cancer patients (white bars) expressing CD107a+ against NCI-H460 (N=7). FIG. 24F is a graph showing pooled proportion of NK cells from healthy donors (black bars) or lung cancer patients (white bars) expressing IFNγ against NCI-H460 (N=7). ** p<0.01, *** p<0.001, and **** p<0.0001.
ADCC was measured in a flow cytometry assay by evaluating degranulation via CD107a (lysosomal-associated membrane protein LAMP-1) and intracellular IFNγ production. […] Samples were washed and evaluated in an LSRII flow cytometer (BD Biosciences, San Jose, CA, USA). […]

[1] = system: PC3 prostate cancer cells; experiment: NK cell CD107a / IFNγ flow cytometry against PC3; assay type: cell-based, human; conditions: normal donor and prostate cancer patient NK cells, vs controls
Description: FIG. 15A is a graph showing pooled analysis of proportion of NK cells from healthy donors or prostate cancer patients expressing CD107a+ (top) or IFNγ (bottom) against C4-2 targets (N=9 for healthy donors, N=3 for patients). FIG. 15B is a graph showing pooled analysis of proportion of NK cells from healthy donors or prostate cancer patients expressing CD107a+ (top) or IFNγ (bottom) against DU145 targets (N=9 for healthy donors, N=3 for patients). FIG. 15C is a graph showing pooled analysis of proportion of NK cells from healthy donors or prostate cancer patients expressing CD107a+ (top) or IFNγ (bottom) against LNCaP targets (N=9 for healthy donors, N=3 for patients). FIG. 15D is a graph showing pooled analysis of proportion of NK cells from healthy donors or prostate cancer patients expressing CD107a+ (top) or IFNγ (bottom) against PC3 targets (N=9 for healthy donors, N=3 for patients). * p<0.05, ** p<0.01, *** p<0.001, and **** p<0.0001.
ADCC was measured in a flow cytometry assay by evaluating degranulation via CD107a (lysosomal-associated membrane protein LAMP-1) and intracellular IFNγ production. Upon thawing, normal donor and patient-derived PBMCs or ascites cells were rested overnight (37° C., 5% CO2) in RPMI 1640 media supplemented with 10% fetal calf serum (RPMI-10). […] Samples were washed and evaluated in an LSRII flow cytometer (BD Biosciences, San Jose, CA, USA). […]

cam1615B7-H3: second-generation TriKE: humanized camelid anti-CD16 VHH, human wild-type IL-15, anti-B7-H3 mAb 376.96 scFv; SEQ ID NO:1
NK cell activation against A549 (A549 lung cancer cells): significantly and robustly improved NK cell activation | NK cell IFNγ production against PC3 [1]: enhanced | NK cell degranulation (CD107a) against PC3 [1]: enhanced
